This experiment has as its system CD8F1 mice, subcutaneous mammary adenocarcinoma, T/C%. The experiment can be described thus: NCI In Vivo Anticancer Drug Screen. Data for tumor model Mammary Adenocarcinoma CD8F1 (subcutaneous) in CD8F1. Particulars: higher = larger tumour. In a few lines:
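Transplantable tumors were established in mice, animals were dosed with compound or vehicle, and survival or tumor size was then measured in both groups. The treated result was divided by the control result.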

Several values for one entry are separate records, joined by “and”; a condition that tells them apart may be missing. Equal entries are not always repeated. Inconclusive results are not listed.

With `CC1CCC(NC(=O)N(CCCl)N=O)CC1` (stereo not given), the T/C is 108 % of control (endpoint: mean tumor weight, dose: 6.25 mg/kg/injection, schedule: Q01DX009 (ip), vehicle: saline + alcohol); 214 % of control (endpoint: mean tumor weight, dose: 6.25 mg/kg/injection, schedule: Q01DX009 (ip), vehicle: saline); 27 % of control (endpoint: mean tumor weight, dose: 12.5 mg/kg/injection, schedule: Q01DX009 (ip), vehicle: saline + alcohol); 50 % of control (endpoint: mean tumor weight, dose: 12.5 mg/kg/injection, schedule: Q01DX009 (ip), vehicle: saline); 63 % of control (endpoint: mean tumor weight, dose: 12.5 mg/kg/injection, schedule: Q07DX006 (ip), vehicle: saline + alcohol); 24 % of control (endpoint: mean tumor weight, dose: 12.5 mg/kg/injection, schedule: Q07DX006 (ip), vehicle: saline). The T/C runs as follows: (endpoint: mean tumor weight, dose: 12.5 mg/kg/injection, schedule: Q07DX007 (ip), vehicle: saline + alcohol) 124 % of control; (endpoint: mean tumor weight, dose: 25.0 mg/kg/injection, schedule: Q01DX009 (ip), vehicle: saline) 47 % of control; (endpoint: mean tumor weight, dose: 25.0 mg/kg/injection, schedule: Q07DX006 (ip), vehicle: saline + alcohol) 28 % of control; (endpoint: mean tumor weight, dose: 25.0 mg/kg/injection, schedule: Q07DX006 (ip), vehicle: saline) 48 % of control; (endpoint: mean tumor weight, dose: 25.0 mg/kg/injection, schedule: Q07DX007 (ip), vehicle: saline + alcohol) 100 % of control; (endpoint: mean tumor weight, dose: 50.0 mg/kg/injection, schedule: Q07DX006 (ip), vehicle: saline + alcohol) 4 % of control. For the same molecule, the T/C runs as follows: (endpoint: mean tumor weight, dose: 50.0 mg/kg/injection, schedule: Q07DX006 (ip), vehicle: saline) 7 % of control; (endpoint: mean tumor weight, dose: 50.0 mg/kg/injection, schedule: Q07DX007 (ip), vehicle: saline + alcohol) 66 % of control; (endpoint: median tumor weight (est.), dose: 2.0 mg/kg/injection, schedule: Q07DX005 (ip), vehicle: Klucel (hydroxypropylcellulose) (HPC)) 98 % of control; (endpoint: median tumor weight (est.), dose: 4.0 mg/kg/injection, schedule: Q07DX005 (ip), vehicle: Klucel (hydroxypropylcellulose) (HPC)) 50 % of control; (endpoint: median tumor weight (est.), dose: 8.0 mg/kg/injection, schedule: Q07DX005 (ip), vehicle: Klucel (hydroxypropylcellulose) (HPC)) 38 % of control; (endpoint: median tumor weight (est.), dose: 16.0 mg/kg/injection, schedule: Q07DX005 (ip), vehicle: Klucel (hydroxypropylcellulose) (HPC)) 24 % of control. Besides, the T/C by setting is: (endpoint: median tumor weight change, dose: 8.0 mg/kg/injection, schedule: Q01DX001 (ip), vehicle: Klucel (hydroxypropylcellulose) (HPC)) 98 % of control; (endpoint: median tumor weight change, dose: 13.8 mg/kg/injection, schedule: Q01DX001 (ip), vehicle: Klucel (hydroxypropylcellulose) (HPC)) 68 % of control; (endpoint: median tumor weight change, dose: 16.0 mg/kg/injection, schedule: Q01DX001 (ip), vehicle: Klucel (hydroxypropylcellulose) (HPC)) 78 % of control; (endpoint: median tumor weight change, dose: 23.0 mg/kg/injection, schedule: Q01DX001 (ip), vehicle: Klucel (hydroxypropylcellulose) (HPC)) 23 % of control; (endpoint: median tumor weight change, dose: 32.0 mg/kg/injection, schedule: Q01DX001 (ip), vehicle: Klucel (hydroxypropylcellulose) (HPC)) 42 % of control; (endpoint: median tumor weight change, dose: 38.4 mg/kg/injection, schedule: Q01DX001 (ip), vehicle: Klucel (hydroxypropylcellulose) (HPC)) -12 % of control. The T/C (endpoint: median tumor weight change, dose: 64.0 mg/kg/injection, schedule: Q01DX001 (ip), vehicle: Klucel (hydroxypropylcellulose) (HPC)) was -13 % of control and -32 % of control.

As for `O=C1C(NCC(O)CO)=C(N2CC2)C(=O)C(NCC(O)CO)=C1N1CC1` (stereo not given), the T/C runs as follows: (endpoint: median tumor weight change, dose: 4.0 mg/kg/injection, schedule: Q01DX001 (ip), vehicle: saline) 123 % of control; (endpoint: median tumor weight change, dose: 4.0 mg/kg/injection, schedule: Q01DX001 (ip), vehicle: suspension in saline) 55 % of control; (endpoint: median tumor weight change, dose: 8.0 mg/kg/injection, schedule: Q01DX001 (ip), vehicle: saline) 19 % of control; (endpoint: median tumor weight change, dose: 8.0 mg/kg/injection, schedule: Q01DX001 (ip), vehicle: suspension in saline) 35 % of control (2×) and 55 % of control; (endpoint: median tumor weight change, dose: 16.0 mg/kg/injection, schedule: Q01DX001 (ip), vehicle: saline) 3 % of control.

Take `C[PH+](C)C.C[PH+](C)C.[Au]`: the T/C runs as follows: (endpoint: median tumor weight change, dose: 1.5 mg/kg/injection, schedule: Q01DX001 (ip), vehicle: saline) 112 % of control; (endpoint: median tumor weight change, dose: 3.0 mg/kg/injection, schedule: Q01DX001 (ip), vehicle: saline) 77 % of control; (endpoint: median tumor weight change, dose: 3.12 mg/kg/injection, schedule: Q01DX001 (ip), vehicle: saline) 95 % of control; (endpoint: median tumor weight change, dose: 12.5 mg/kg/injection, schedule: Q01DX001 (ip), vehicle: saline) 60 % of control and 80 % of control.

As to `O=C(O[Si](Cc1ccccc1)(Cc1ccccc1)Cc1ccccc1)N(CCCl)CCCl`, the T/C is 159 % of control (endpoint: median tumor weight change, dose: 62.0 mg/kg/injection, schedule: Q01DX001 (ip), vehicle: saline with Tween-80); 98 % of control and 109 % of control (endpoint: median tumor weight change, dose: 62.5 mg/kg/injection, schedule: Q01DX001 (ip), vehicle: saline with Tween-80).

For the molecule `CC[C@H]1CN2CCc3cc(OC)c(OC)cc3[C@@H]2C[C@@H]1C[C@H]1NCCc2cc(O)c(OC)cc21`, the T/C (endpoint: median tumor weight (est.), dose: 2.0 mg/kg/injection, schedule: Q07DX005 (ip), vehicle: saline) is 67 % of control; the T/C (endpoint: median tumor weight (est.), dose: 4.0 mg/kg/injection, schedule: Q07DX005 (ip), vehicle: saline) was 95 % of control; the T/C (endpoint: median tumor weight (est.), dose: 8.0 mg/kg/injection, schedule: Q07DX005 (ip), vehicle: saline) is 92 % of control; the T/C (endpoint: median tumor weight (est.), dose: 16.0 mg/kg/injection, schedule: Q07DX005 (ip), vehicle: saline) was 47 % of control.

Consider `CCNC(=O)[B-][N+](C)(C)C`, for which the T/C is, setting by setting: (endpoint: median tumor weight change, dose: 50.0 mg/kg/injection, schedule: Q01DX001 (ip), vehicle: Klucel (hydroxypropylcellulose) (HPC)) 101 % of control; (endpoint: median tumor weight change, dose: 100.0 mg/kg/injection, schedule: Q01DX001 (ip), vehicle: Klucel (hydroxypropylcellulose) (HPC)) 108 % of control; (endpoint: median tumor weight change, dose: 200.0 mg/kg/injection, schedule: Q01DX001 (ip), vehicle: Klucel (hydroxypropylcellulose) (HPC)) 97 % of control; (endpoint: median tumor weight change, dose: 400.0 mg/kg/injection, schedule: Q01DX001 (ip), vehicle: Klucel (hydroxypropylcellulose) (HPC)) 72 % of control.

On to `BrC[P+](CBr)(CBr)CBr`, for which the T/C by setting is: (endpoint: median tumor weight change, dose: 125.0 mg/kg/injection, schedule: Q01DX001 (ip), vehicle: saline with Tween-80) 124 % of control; (endpoint: median tumor weight change, dose: 250.0 mg/kg/injection, schedule: Q01DX001 (ip), vehicle: saline with Tween-80) 152 % of control.

Take `CS(=O)(=O)Nc1ccc(C(=O)CCN2CCCCCC2)cc1`: the T/C is, setting by setting: (endpoint: median tumor weight change, dose: 125.0 mg/kg/injection, schedule: Q01DX001 (ip), vehicle: suspension in saline) 157 % of control; (endpoint: median tumor weight change, dose: 250.0 mg/kg/injection, schedule: Q01DX001 (ip), vehicle: suspension in saline) 166 % of control; (endpoint: median tumor weight change, dose: 500.0 mg/kg/injection, schedule: Q01DX001 (ip), vehicle: suspension in saline) 92 % of control.

As for `c1ccc2c(c1)nnn1c3cnccc3nc21`, the T/C is 115 % of control (endpoint: median tumor weight (est.), dose: 3.12 mg/kg/injection, schedule: Q07DX005 (ip), vehicle: saline with Tween-80); 85 % of control (endpoint: median tumor weight (est.), dose: 6.25 mg/kg/injection, schedule: Q07DX005 (ip), vehicle: saline with Tween-80); 105 % of control (endpoint: median tumor weight (est.), dose: 12.5 mg/kg/injection, schedule: Q07DX005 (ip), vehicle: saline with Tween-80); 124 % of control (endpoint: median tumor weight (est.), dose: 25.0 mg/kg/injection, schedule: Q07DX005 (ip), vehicle: saline with Tween-80).

Regarding `O=CC(NC(=O)N(CCCl)N=O)C(O)C(O)C(O)CO` (stereo not given), the T/C runs as follows: (endpoint: mean tumor weight, dose: 1.5 mg/kg/injection, schedule: Q02DX008 (ip), vehicle: saline) 58 % of control; (endpoint: mean tumor weight, dose: 3.0 mg/kg/injection, schedule: Q02DX008 (ip), vehicle: saline) 24 % of control; (endpoint: mean tumor weight, dose: 6.0 mg/kg/injection, schedule: Q02DX008 (ip), vehicle: saline) 31 % of control; (endpoint: median tumor weight (est.), dose: 1.5 mg/kg/injection, schedule: Q07DX005 (ip), vehicle: saline) 175 % of control; (endpoint: median tumor weight (est.), dose: 3.0 mg/kg/injection, schedule: Q07DX005 (ip), vehicle: saline) 107 % of control; (endpoint: median tumor weight (est.), dose: 6.0 mg/kg/injection, schedule: Q07DX005 (ip), vehicle: saline) 53 % of control. The T/C was 14 % of control (endpoint: median tumor weight (est.), dose: 12.0 mg/kg/injection, schedule: Q07DX005 (ip), vehicle: saline) and 13 % of control (endpoint: median tumor weight (est.), dose: 24.0 mg/kg/injection, schedule: Q07DX005 (ip), vehicle: saline).

As to `[I][Hg][CH2]C1COC([CH2][Hg][I])CO1` (stereo not given), the T/C (endpoint: median tumor weight (est.), dose: 6.25 mg/kg/injection, schedule: Q07DX005 (ip), vehicle: suspension in saline) was 103 % of control; the T/C (endpoint: median tumor weight (est.), dose: 12.5 mg/kg/injection, schedule: Q07DX005 (ip), vehicle: suspension in saline) is 167 % of control; the T/C (endpoint: median tumor weight (est.), dose: 25.0 mg/kg/injection, schedule: Q07DX005 (ip), vehicle: suspension in saline) was 227 % of control; the T/C (endpoint: median tumor weight (est.), dose: 50.0 mg/kg/injection, schedule: Q07DX005 (ip), vehicle: suspension in saline) is 27 % of control.

These data come from PubChem BioAssay AID220 (DTP/NCI, 2004).
